Assay results: patent US9206200B2, “N-linked lactam M1 receptor positive allosteric mogulators” (Merck Sharp & Dohme Corp., priority 2011, dated 2015)

Biological target: T1, acetylcholine muscarinic M1 receptor (Homo sapiens, UniProt P11229)
T1 construct: expressed in transfected cells; host or cells: CHOnfat cells (CHO cells with an NFAT reporter) expressing hM1, kept under Geneticin selection
T1 sequence (P11229 1-460): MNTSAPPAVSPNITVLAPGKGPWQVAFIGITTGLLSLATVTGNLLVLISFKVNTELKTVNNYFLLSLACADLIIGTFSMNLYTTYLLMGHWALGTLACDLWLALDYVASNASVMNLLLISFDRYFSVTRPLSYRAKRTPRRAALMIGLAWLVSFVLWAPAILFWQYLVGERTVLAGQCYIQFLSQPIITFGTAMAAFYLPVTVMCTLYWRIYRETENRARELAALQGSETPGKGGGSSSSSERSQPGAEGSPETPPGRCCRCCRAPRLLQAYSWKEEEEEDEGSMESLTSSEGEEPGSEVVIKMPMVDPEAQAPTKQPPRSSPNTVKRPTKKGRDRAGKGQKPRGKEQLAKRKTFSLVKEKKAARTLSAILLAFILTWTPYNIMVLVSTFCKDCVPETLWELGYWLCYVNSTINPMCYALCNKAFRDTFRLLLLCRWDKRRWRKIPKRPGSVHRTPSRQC
Test: muscarinic FLIPR assay: intracellular calcium in CHOnfat/hM1 cells, potentiation of EC20 acetylcholine
Type: cell-based
Conditions: Table 2; CHOnfat/hM1 cells, FLIPR, EC20 acetylcholine (3 nM final); read-out: M1 Pot.
In short: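 CHOnfat cells stably expressing human M1, Fluo-4AM-loaded, in HBSS with 20 mM HEPES, 2.5 mM probenecid, 1% BSA. Compounds preincubated 4 min (printed "4 mM") before an EC20 acetylcholine challenge (3 nM final). FLIPR intracellular Ca²⁺ signal compared with 3 nM acetylcholine alone to detect potentiation.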

Compound | EC50
CCN(CC)Cc1cc2c(c3ncccc13)CN(C1CCCCC1O)C2=O (stereo not drawn) [Example 88, 5-[(diethylamino)methyl]-8-(2-hydroxycyclohexyl)-8,9-dihydro-7H-pyrrolo[3,4-h]quinolin-7-one] | 4000 nM
O=C1c2cc(CN3CCC(O)CC3)c3cccnc3c2CN1C1CCCCC1O (stereo not drawn) [Example 89, 8-(2-hydroxycyclohexyl)-5-[(4-hydroxypiperidin-1-yl)methyl]-8,9-dihydro-7H-pyrrolo[3,4-h]quinolin-7-one] | 290 nM
O=C1c2cc(CN3CCC(C4CC4)CC3)c3cccnc3c2CN1C1CCCCC1O (stereo not drawn) [Example 90, 5-[(4-cyclopropylpiperidin-1-yl)methyl]-8-(2-hydroxycyclohexyl)-8,9-dihydro-7H-pyrrolo[3,4-h]quinolin-7-one] | 1200 nM
O=C1c2cc(CN3CCC(F)CC3)c3cccnc3c2CN1C1CCCCC1O (stereo not drawn) [Example 91, 5-[(4-fluoropiperidin-1-yl)methyl]-8-(2-hydroxycyclohexyl)-8,9-dihydro-7H-pyrrolo[3,4-h]quinolin-7-one] | 88 nM
N#CC1CCN(Cc2cc3c(c4ncccc24)CN([C@H]2CCCC[C@@H]2O)C3=O)CC1 [Example 92, 1-({8-[(1S,2S)-2-hydroxycyclohexyl]-7-oxo-8,9-dihydro-7H-pyrrolo[3,4-h]quinolin-5-yl}methyl)piperidine-4-carbonitrile] | 72 nM
CC1c2c(cc(CN3CCC(F)CC3)c3cccnc23)C(=O)N1[C@H]1CCCC[C@@H]1O (stereo partly drawn) [Example 93, 5-[(4-fluoropiperidin-1-yl)methyl]-8-[(1S,2S)-2-hydroxycyclohexyl]-9-methyl-8,9-dihydro-7H-pyrrolo[3,4-h]quinolin-7-one] | 70 nM
N#CC1CCN(Cc2cc3c(c4ncccc24)CN([C@H]2CCCC[C@@H]2O)C3=O)CC1 [Example 94, 1-({8-[(1S,2S)-2-hydroxycyclohexyl]-7-oxo-8,9-dihydro-7H-pyrrolo[3,4-h]quinolin-5-yl}methyl)piperidine-4-carbonitrile] | 51 nM
O=C1c2cc(CN3CCC4(CC3)COc3ccccc34)c3cccnc3c2CN1C1CCCCC1O (stereo not drawn) [Example 95, 8-(2-hydroxycyclohexyl)-5-(1′H-spiro[1-benzofuran-3,4′-piperidin]-1′-ylmethyl)-8,9-dihydro-7H-pyrrolo[3,4-h]quinolin-7-one] | 290 nM
O=C1c2cc(CN3CCCC3)c3cccnc3c2CN1C1CCCCC1O (stereo not drawn) [Example 97, 8-(2-hydroxycyclohexyl)-5-(pyrrolidin-1-ylmethyl)-8,9-dihydro-7H-pyrrolo[3,4-h]quinolin-7-one] | 5200 nM
O=C1c2cc(CN3CCC(F)(F)C3)c3cccnc3c2CN1C1CCCCC1O (stereo not drawn) [Example 98, 5-[(3,3-difluoropyrrolidin-1-yl)methyl]-8-(2-hydroxycyclohexyl)-8,9-dihydro-7H-pyrrolo[3,4-h]quinolin-7-one] | 151 nM
O=C1c2cc(CN3CCOCC3)c3cccnc3c2CN1C1CCCCC1O (stereo not drawn) [Example 99, 8-(2-hydroxycyclohexyl)-5-(morpholin-4-ylmethyl)-8,9-dihydro-7H-pyrrolo[3,4-h]quinolin-7-one] | 150 nM
CC1(C)CCN(Cc2cc3c(c4ncccc24)CN(C2CCCCC2O)C3=O)CC1 (stereo not drawn) [Example 100, 5-[(4,4-dimethylpiperidin-1-yl)methyl]-8-(2-hydroxycyclohexyl)-8,9-dihydro-7H-pyrrolo[3,4-h]quinolin-7-one] | 430 nM
CC1(O)CCN(Cc2cc3c(c4ncccc24)CN(C2CCCCC2O)C3=O)CC1 (stereo not drawn) [Example 101, 8-(2-hydroxycyclohexyl)-5-[(4-hydroxy-4-methylpiperidin-1-yl)methyl]-8,9-dihydro-7H-pyrrolo[3,4-h]quinolin-7-one] | 930 nM
CC1(F)CCN(Cc2cc3c(c4ncccc24)CN([C@H]2CCCC[C@@H]2O)C3=O)CC1 [Example 102, 5-[(4-fluoro-4-methylpiperidin-1-yl)methyl]-8-[(1S,2S)-2-hydroxycyclohexyl]-8,9-dihydro-7H-pyrrolo[3,4-h]quinolin-7-one] | 250 nM
C#CC1(F)CCN(Cc2cc3c(c4ncccc24)CN([C@H]2CCCC[C@@H]2O)C3=O)CC1 [Example 103, 5-[(4-ethynyl-4-fluoropiperidin-1-yl)methyl]-8-[(1S,2S)-2-hydroxycyclohexyl]-8,9-dihydro-7H-pyrrolo[3,4-h]quinolin-7-one] | 11 nM
CC1c2c(cc(CN3CCC(F)(F)CC3)c3cccnc23)C(=O)N1[C@@H]1CCCC[C@@H]1O (stereo partly drawn) [Example 104, 5-[(4,4-difluoropiperidin-1-yl)methyl]-8-[(1R,2S)-2-hydroxycyclohexyl]-9-methyl-8,9-dihydro-7H-pyrrolo[3,4-h]quinolin-7-one] | 15 nM
CCC1c2c(cc(CN3CCC(F)(F)CC3)c3cccnc23)C(=O)N1[C@@H]1CCCC[C@@H]1O (stereo partly drawn) [Example 105, 5-[(4,4-difluoropiperidin-1-yl)methyl]-9-ethyl-8-[(1R,2S)-2-hydroxycyclohexyl]-8,9-dihydro-7H-pyrrolo[3,4-h]quinolin-7-one] | 9.9 nM
CC1c2c(cc(CN3CCC(F)(F)CC3)c3cccnc23)C(=O)N1[C@@H]1COCC[C@@H]1O (stereo partly drawn) [Example 106, 1,5-anhydro-2,4-dideoxy-4-{5-[(4,4-difluoropiperidin-1-yl)methyl]-9-methyl-7-oxo-7,9-dihydro-8H-pyrrolo[3,4-h]quinolin-8-yl}-D-erythro-pentitol] | 110 nM
CC1c2c(cc(CN3CCC(F)(F)CC3)c3cccnc23)C(=O)N1[C@@H]1CCOC[C@@H]1O (stereo partly drawn) [Example 107, 1,5-anhydro-3,4-dideoxy-3-{5-[(4,4-difluoropiperidin-1-yl)methyl]-9-methyl-7-oxo-7,9-dihydro-8H-pyrrolo[3,4-h]quinolin-8-yl}-D-erythro-pentitol] | 12 nM
O=C1c2cc(CN3CCC(F)(F)CC3)c3cccnc3c2CN1C1CCCCC1O (stereo not drawn) [Example 116, 5-[(4,4-difluoropiperidin-1-yl)methyl]-8-(2-hydroxycyclohexyl)-8,9-dihydro-7H-pyrrolo[3,4-h]quinolin-7-one] | 21 nM
N#CC1(F)CCN(Cc2cc3c(c4ncccc24)CN([C@H]2CCCC[C@@H]2O)C3=O)CC1 [Example 117, 4-fluoro-1-({8-[(1S,2S)-2-hydroxycyclohexyl]-7-oxo-8,9-dihydro-7H-pyrrolo[3,4-h]quinolin-5-yl}methyl)piperidine-4-carbonitrile] | 38 nM
CCC1c2c(cc(CN3CCC(F)(C#N)CC3)c3cccnc23)C(=O)N1[C@@H]1CCCC[C@@H]1O (stereo partly drawn) [Example 120, 1-({9-ethyl-8-[(1R,2S)-2-hydroxycyclohexyl]-7-oxo-8,9-dihydro-7H-pyrrolo[3,4-h]quinolin-5-yl}methyl)-4-fluoropiperidine-4-carbonitrile] | 21 nM
O=C1c2cc(CN3CCCC(F)C3)c3cccnc3c2CN1C1CCCCC1O (stereo not drawn) [Example 121, 5-[(3-fluoropiperidin-1-yl)methyl]-8-(2-hydroxycyclohexyl)-8,9-dihydro-7H-pyrrolo[3,4-h]quinolin-7-one] | 108 nM
O=C1c2cc(CN3CCCC(F)(F)C3)c3cccnc3c2CN1C1CCCCC1O (stereo not drawn) [Example 122, 5-[(3,3-difluoropiperidin-1-yl)methyl]-8-(2-hydroxycyclohexyl)-8,9-dihydro-7H-pyrrolo[3,4-h]quinolin-7-one] | 86 nM
